Measured values as given in US6635432B1, “Peptide potentiation of acid-sensory ion channel in pain” (University of Iowa Research Foundation, priority 2000, dated 2003).
Where no end group is shown, it is not given here.

Experiments:
Type in all cases: cell-based
ASICα [1] = target: T1, ASICα (Homo sapiens, UniProt P78348); assay: Two-electrode voltage-clamp of Xenopus oocytes expressing ASICα; parameters: expressed in transfected cells; host or cells: Xenopus laevis oocytes (nuclear injection of pMT3 plasmid); details: for effect on H+-gated ASICα current (inactivation, sustained current): pH 5, agents 50 μM (A18Famide 25 μM), added prior to and during acidification
T1 sequence (P78348 1-528): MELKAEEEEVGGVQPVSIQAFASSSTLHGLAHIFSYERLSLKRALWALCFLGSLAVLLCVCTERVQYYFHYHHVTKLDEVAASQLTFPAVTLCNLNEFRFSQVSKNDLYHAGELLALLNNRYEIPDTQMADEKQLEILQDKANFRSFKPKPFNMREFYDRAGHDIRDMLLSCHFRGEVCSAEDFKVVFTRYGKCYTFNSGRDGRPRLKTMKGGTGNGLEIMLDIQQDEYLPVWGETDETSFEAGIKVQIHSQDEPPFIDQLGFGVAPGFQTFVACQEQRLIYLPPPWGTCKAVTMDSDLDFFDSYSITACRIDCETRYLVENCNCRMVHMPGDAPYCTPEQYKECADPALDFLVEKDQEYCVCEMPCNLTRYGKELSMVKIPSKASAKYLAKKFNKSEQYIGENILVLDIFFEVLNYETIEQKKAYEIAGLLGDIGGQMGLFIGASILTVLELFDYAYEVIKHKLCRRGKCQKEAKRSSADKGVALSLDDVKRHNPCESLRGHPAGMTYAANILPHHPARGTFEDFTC
From the text: (§1) Human ASICα was cloned from brain polyA RNA. Rat ASICβ and mouse DRASIC were cloned from DRG RNA. Human BNC1 was cloned as described in Price et al. (1996)(Price, M. P., Snyder, P. M., and Welsh, M. J. (1996). Cloning and expression of a novel human brain Na^+ channel. J Biol Chem 271, 7879-7882). Constructs were cloned into pMT3 for expression.
(§2) Expression of the cDNA constructs in Xenopus oocytes was accomplished by injection of plasmid DNA into the nucleus of defolliculated albino Xenopus laevis oocytes (Nasco, Fort Atkinson, Wis.) as described previously (Adams, C. M., Snyder, P. M., Price, M. P., and Welsh, M. J. (1998). Protons activate brain Na^+ channel 1 by inducing a conformational change that exposes a residue associated with neurodegeneration. J Biol Chem 273, 30204-30207). Plasmids were injected at concentrations of 100 ng/μl for most experiments. Oocytes were incubated in modified Barth's solution at 18° C. for 12-26 hr after injection. Cells injected with DRASIC were allowed to incubate for 24-48 hr before analysis.
Whole-cell currents in oocytes were measured using a two-electrode voltage-clamp as previously described (Adams, et al. (1998)). Oocytes were bathed in frog Ringers solution containing, in mM: 116 NaCl, LiCl or KCl, 0.4 CaCl2, MgCl2, 5 4-(2-hydroxyethyl)-1-piperazineethanesulfonic acid (HEPES), pH 7.4. Acidic solutions were buffered with 5 mM 2-(4-morpholino)-ethanesulfonic acid (MES) instead of HEPES. Membrane voltage was held at −60 mV unless otherwise noted. Most peptides and naloxone were obtained from Sigma Chemical Co. (St. Louis, Mont.) and were added to the extracellular solution. The peptide FRRFamide was synthesized by Research Genetics (Huntsville, Ala.).

ASICα [2] = target: T1, ASICα; assay: Whole-cell patch-clamp of HEK-293T cells transfected with ASICα; parameters: expressed in transfected cells; details: HEK293 cells; amiloride 100 μM, FMRFamide 100 μM, pH 5
From the text: Human ASICα was cloned from brain polyA RNA. Rat ASICβ and mouse DRASIC were cloned from DRG RNA. […] Constructs were cloned into pMT3 for expression.
To identify transfected cells, pGreenlantern vector encoding green fluorescent protein (Gibco, Gaithersburg, Md.) was co-transfected with ASICα at a ratio of 1:6; transfected cells were identified using epifluorescence microscopy. Cells were studied 1-2 days after transfection.
(§3) The pipette solution contained, in mM: 120 KCl, 10 NaCl, 2 MgCl2, 5 EGTA, 10 HEPES. Perfusion of cells with different solutions was done by placing the appropriate outlet in front of the cell. Data were recorded with an AXOPATCH 200 (Axon Instruments, Foster City, Calif.) and stored on a digital tape recorder. Digitization was executed by acquiring data at 400 Hz using pClamp6 (Axon Instruments, Foster City, Calif.).

[3] = system: proton-gated currents in cultured rat DRG neurons; assay: Whole-cell patch-clamp of proton-gated currents in cultured DRG neurons
Protocol: Rat DRG neurons were cultured from Norway rats as described in Benson et al. (1999)(Benson, C. J., Eckert, S. P., and McCleskey, E. W. (1999). Acid-evoked currents in cardiac sensory neurons: A possible mediator of myocardial ischemic sensation. Circulation Research 84, 921-928). Cells were allowed to incubate overnight at room temperature and studies were done 1 to 2 days after isolation.
as §3, with “During whole-cell patch-clamping of DRG neurons and transfected HEK-293T cells, the cells were bathed with an extracellular solution that contained, in mM: 128 NaCl, 5 MgCl2, 1.8 CaCl2, 5.4 KCl, 5.55 glucose, 20 HEPES, pH 7.5 or 5. The” for “The”
Whole-cell patch-clamp recordings were used to investigate the effect of FMRFamide on proton-gated currents in cultured rat DRG neurons. As previously reported (Akaike, N., and Ueno, S. (1994). Proton-induced current in neuronal cells. Prog Neurobiol 43, 73-83), acidification to pH 5 produced rapidly activating and inactivating currents in the sensory neurons of the DRG (FIGS. 1A-D). […] The presence of the neuropeptide immediately before acidification also altered inactivation (FIGS. 1C, 1D).

BNC1 = target: T2, BNC1 (Homo sapiens, UniProt Q16515); assay: Two-electrode voltage-clamp of Xenopus oocytes expressing BNC1; details: pH 5
T2 construct: expressed in transfected cells; host or cells: Xenopus laevis oocytes (nuclear injection of pMT3 plasmid)
T2 sequence (Q16515 1-512): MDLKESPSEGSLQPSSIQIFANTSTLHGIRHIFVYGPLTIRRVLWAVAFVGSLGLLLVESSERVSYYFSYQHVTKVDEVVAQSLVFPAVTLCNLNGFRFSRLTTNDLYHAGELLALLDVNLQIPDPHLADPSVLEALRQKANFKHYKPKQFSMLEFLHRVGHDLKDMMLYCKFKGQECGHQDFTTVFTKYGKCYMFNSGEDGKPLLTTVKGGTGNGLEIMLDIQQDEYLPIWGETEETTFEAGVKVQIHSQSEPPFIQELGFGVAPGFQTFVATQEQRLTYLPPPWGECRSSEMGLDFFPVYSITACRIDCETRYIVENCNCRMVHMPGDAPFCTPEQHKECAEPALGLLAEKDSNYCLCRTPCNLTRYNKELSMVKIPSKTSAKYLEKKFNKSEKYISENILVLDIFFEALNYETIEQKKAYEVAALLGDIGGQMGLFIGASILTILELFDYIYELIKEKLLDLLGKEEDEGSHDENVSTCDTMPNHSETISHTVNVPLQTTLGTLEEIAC
From the text: as §1, with “expression. The validity of the constructs was confirmed by DNA sequencing.” for “expression.”
as §2
(§4) Whole-cell currents in oocytes were measured using a two-electrode voltage-clamp as previously described (Adams, et al. (1998)). […]

DRASIC = target: T3, DRASIC (Mus musculus, UniProt Q6X1Y6); assay: Two-electrode voltage-clamp of Xenopus oocytes expressing DRASIC; details: neuropeptide FF 50 μM added prior to acidification
T3 construct: expressed in transfected cells; host or cells: Xenopus laevis oocytes (nuclear injection of pMT3 plasmid)
T3 sequence (Q6X1Y6 1-530): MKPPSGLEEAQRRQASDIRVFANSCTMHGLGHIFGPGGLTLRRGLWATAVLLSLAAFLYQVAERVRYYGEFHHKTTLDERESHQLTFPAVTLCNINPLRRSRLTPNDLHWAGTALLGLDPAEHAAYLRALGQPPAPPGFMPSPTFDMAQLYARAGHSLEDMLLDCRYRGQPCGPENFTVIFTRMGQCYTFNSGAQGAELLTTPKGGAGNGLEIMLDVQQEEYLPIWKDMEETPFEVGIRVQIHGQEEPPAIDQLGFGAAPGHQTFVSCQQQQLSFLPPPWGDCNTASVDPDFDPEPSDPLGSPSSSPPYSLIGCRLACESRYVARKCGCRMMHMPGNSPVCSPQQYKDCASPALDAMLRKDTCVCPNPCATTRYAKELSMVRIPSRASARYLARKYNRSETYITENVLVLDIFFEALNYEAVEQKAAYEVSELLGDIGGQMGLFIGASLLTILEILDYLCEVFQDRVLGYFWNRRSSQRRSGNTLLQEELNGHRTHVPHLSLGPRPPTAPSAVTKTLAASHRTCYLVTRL
From the text: as §1, with “expression. The validity of the constructs was confirmed by DNA sequencing.” for “expression.”
as §2, §4

ASICβ = target: T4, ASICβ (Rattus norvegicus, UniProt P55926); assay: Two-electrode voltage-clamp of Xenopus oocytes expressing ASICβ; details: pH 5, peptide 50 μM
T4 construct: expressed in transfected cells; host or cells: Xenopus laevis oocytes (nuclear injection of pMT3 plasmid)
T4 sequence (P55926 1-559 isoform P55926-3): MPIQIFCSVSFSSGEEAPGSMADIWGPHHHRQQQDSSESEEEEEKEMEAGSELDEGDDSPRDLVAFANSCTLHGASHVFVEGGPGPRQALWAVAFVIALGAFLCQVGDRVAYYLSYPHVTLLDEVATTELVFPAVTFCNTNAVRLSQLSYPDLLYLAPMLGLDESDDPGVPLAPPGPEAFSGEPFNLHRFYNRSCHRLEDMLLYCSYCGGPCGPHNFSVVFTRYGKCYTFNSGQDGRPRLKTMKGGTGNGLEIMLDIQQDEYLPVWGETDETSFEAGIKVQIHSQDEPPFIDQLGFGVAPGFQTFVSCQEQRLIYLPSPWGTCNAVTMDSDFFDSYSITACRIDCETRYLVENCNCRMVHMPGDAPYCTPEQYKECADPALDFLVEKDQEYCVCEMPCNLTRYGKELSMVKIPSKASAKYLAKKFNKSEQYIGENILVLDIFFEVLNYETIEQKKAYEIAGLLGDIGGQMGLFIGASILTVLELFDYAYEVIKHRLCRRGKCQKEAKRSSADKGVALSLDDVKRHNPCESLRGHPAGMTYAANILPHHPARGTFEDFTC
From the text: as §1, with “expression. The validity of the constructs was confirmed by DNA sequencing.” for “expression.”
as §2, §4

## N=C(N)NC(=O)c1nc(Cl)c(N)nc1N [amiloride]
ASICα [1]; amiloride 1 mM, FMRFamide 50 μM, pH 5
  effect of amiloride on FMRFamide-induced sustained current: inhibited
ASICα [2]
  effect of amiloride on FMRFamide-induced sustained current: inhibited

## C=CCN1CC[C@]23c4c5ccc(O)c4O[C@H]2C(=O)CC[C@@]3(O)[C@H]1C5 [naloxone]
[3]; naloxone 100 μM
  block of the FMRFamide effect on proton-gated current: did not block the effect of FMRFamide
ASICα [1]; naloxone 500 μM applied before FMRFamide 50 μM, pH 5
  effect of naloxone on FMRFamide-induced ASICα sustained current: neither morphine nor naloxone altered ASICα current

## CN1CC[C@]23c4c5ccc(O)c4O[C@H]2[C@@H](O)C=C[C@H]3[C@H]1C5 [morphine]
[3]; morphine 50 μM
  mimicking of the FMRFamide effect on proton-gated current: did not mimic it
ASICα [1]
  effect on H+-gated ASICα current (inactivation, sustained current): neither morphine nor naloxone altered ASICα current

## Phe-Leu-Phe-Gln-Pro-Gln-Arg-Phe-amide [neuropeptide FF]
[3]; pH 5, 50 μM each
  size of effects compared with FMRFamide: smaller than those generated by FMRFamide
[3]; pH 5, FMRFamide 50-100 μM, neuropeptide FF 50 μM
  effect on inactivation of proton-gated current and sustained current: altered inactivation of proton-gated DRF currents
[3]; without acidification
  current generated by agent added alone: generated no current on its own
BNC1
  effect on acid-gated BNC1 currents: appeared unaffected
ASICα [1]
  effect on H+-gated ASICα current (inactivation, sustained current): produced only minor effects on inactivation rate but no sustained current
ASICα [1]; listed as Neuropeptide FF
  effect on H+-gated ASICα current (inactivation, sustained current): subtle effects on ASICα currents, slowing inactivation but not generating appreciable sustained current
DRASIC
  effect on inactivation of H+-gated DRASIC currents: slowed the inactivation of H^+-gated DRASIC currents
ASICβ
  effect on H+-gated ASICβ current (inactivation, sustained current): appeared unaffected

## A18Famide: mammalian FMRFamide-like peptide, terminates with the sequence PQRFamide (AGEGLNSQFWSLAAPQRF-NH2; UniProt O15130 93-110, looked up)
ASICα [1]
  effect on H+-gated ASICα current (inactivation, sustained current): Neither A18Famide nor MERF altered ASICα current

## metenkephalin-Arg-Phe (YGGFMRF; Met-enkephalin-Arg-Phe; UniProt P01210 261-267, looked up) [MERF]
ASICα [1]
  effect on H+-gated ASICα current (inactivation, sustained current): Neither A18Famide nor MERF altered ASICα current
